Experimental data as given in PubChem BioAssay (NCI).
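Assay format: 96-well plates, 48-hour exposure. TGI is the concentration that stops growth completely.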

Legend:
Experiment in all cases: NCI-60 cell line screen, 48 h
SF-539 CNS = test system: SF-539 CNS
RPMI-8226 leukemia = test system: RPMI-8226 leukemia
SF-295 CNS = test system: SF-295 CNS
HOP-62 NSCLC = test system: HOP-62 NSCLC
SN12C renal = test system: SN12C renal
M14 melanoma = test system: M14 melanoma
CCRF-CEM leukemia = test system: CCRF-CEM leukemia
SW-620 colon = test system: SW-620 colon
A549 NSCLC = test system: A549 NSCLC
HOP-92 NSCLC = test system: HOP-92 NSCLC
DMS 273 small cell lung = test system: DMS 273 small cell lung
UACC-257 melanoma = test system: UACC-257 melanoma
HL-60(TB) leukemia = test system: HL-60(TB) leukemia
OVCAR-4 ovarian = test system: OVCAR-4 ovarian
OVCAR-3 ovarian = test system: OVCAR-3 ovarian
MALME-3M melanoma = test system: MALME-3M melanoma
KM12 colon = test system: KM12 colon
HCT-15 colon = test system: HCT-15 colon
SNB-19 CNS = test system: SNB-19 CNS
SF-268 CNS = test system: SF-268 CNS
DLD-1 colon = test system: DLD-1 colon
SK-MEL-28 melanoma = test system: SK-MEL-28 melanoma
SNB-78 CNS = test system: SNB-78 CNS
UACC-62 melanoma = test system: UACC-62 melanoma
OVCAR-8 ovarian = test system: OVCAR-8 ovarian
U251 CNS = test system: U251 CNS
NCI-H23 lung = test system: NCI-H23 lung
SR leukemia = test system: SR leukemia
KM20L2 colon = test system: KM20L2 colon
A498 renal = test system: A498 renal
RXF 393 renal = test system: RXF 393 renal
HT29 colon = test system: HT29 colon
OVCAR-5 ovarian = test system: OVCAR-5 ovarian
IGROV1 ovarian = test system: IGROV1 ovarian
RXF-631 renal = test system: RXF-631 renal
HCC-2998 colon = test system: HCC-2998 colon
SK-OV-3 ovarian = test system: SK-OV-3 ovarian
EKVX NSCLC = test system: EKVX NSCLC
SK-MEL-5 melanoma = test system: SK-MEL-5 melanoma
TK-10 renal = test system: TK-10 renal
HCT-116 colon = test system: HCT-116 colon
NCI-H460 lung = test system: NCI-H460 lung
ACHN renal = test system: ACHN renal
MOLT-4 leukemia = test system: MOLT-4 leukemia
UO-31 renal = test system: UO-31 renal
DMS 114 small cell lung = test system: DMS 114 small cell lung
786-0 renal = test system: 786-0 renal
LXFL 529 NSCLC = test system: LXFL 529 NSCLC
XF 498 CNS = test system: XF 498 CNS
COLO 205 colon = test system: COLO 205 colon
LOX IMVI melanoma = test system: LOX IMVI melanoma
M19-MEL melanoma = test system: M19-MEL melanoma
HOP-18 NSCLC = test system: HOP-18 NSCLC
K-562 leukemia = test system: K-562 leukemia
NCI-H226 lung = test system: NCI-H226 lung
NCI-H522 lung = test system: NCI-H522 lung
CAKI-1 renal = test system: CAKI-1 renal
SK-MEL-2 melanoma = test system: SK-MEL-2 melanoma
SNB-75 CNS = test system: SNB-75 CNS

In the case of `COc1ccc(O)cc1C=O`, the TGI (SF-539 CNS) is reported as greater than 100 µM, the TGI (RPMI-8226 leukemia) is reported as greater than 100 µM and the TGI (SF-295 CNS) is reported as greater than 100 µM. It also gave a TGI (HOP-62 NSCLC) greater than 100 µM, a TGI (SN12C renal) greater than 100 µM and a TGI (M14 melanoma) greater than 100 µM. The TGI (CCRF-CEM leukemia) was greater than 100 µM, the TGI (SW-620 colon) was greater than 100 µM and the TGI (A549 NSCLC) was greater than 100 µM. The TGI (HOP-92 NSCLC) was greater than 100 µM, the TGI (DMS 273 small cell lung) was greater than 100 µM and the TGI (UACC-257 melanoma) was greater than 100 µM. For the same compound, the TGI (HL-60(TB) leukemia) was 54.9 µM, the TGI (OVCAR-4 ovarian) was greater than 100 µM and the TGI (OVCAR-3 ovarian) was greater than 100 µM. The TGI (MALME-3M melanoma) was greater than 100 µM, the TGI (KM12 colon) was greater than 100 µM and the TGI (HCT-15 colon) was greater than 100 µM. For the same compound, the TGI (SNB-19 CNS) was greater than 100 µM, the TGI (SF-268 CNS) was greater than 100 µM and the TGI (DLD-1 colon) was greater than 100 µM. For the same compound, the TGI (SK-MEL-28 melanoma) was greater than 100 µM, the TGI (SNB-78 CNS) was greater than 100 µM and the TGI (UACC-62 melanoma) was greater than 100 µM. For the same compound, the TGI (OVCAR-8 ovarian) was greater than 100 µM, the TGI (U251 CNS) was greater than 100 µM and the TGI (NCI-H23 lung) was greater than 100 µM. For the same compound, the TGI (SR leukemia) was 92.3 µM, the TGI (KM20L2 colon) was greater than 100 µM and the TGI (A498 renal) was greater than 100 µM. The TGI (RXF 393 renal) was greater than 100 µM, the TGI (HT29 colon) was greater than 100 µM and the TGI (OVCAR-5 ovarian) was greater than 100 µM. For the same compound, the TGI (IGROV1 ovarian) was greater than 100 µM, the TGI (RXF-631 renal) was greater than 100 µM and the TGI (HCC-2998 colon) was greater than 100 µM. It also gave a TGI (SK-OV-3 ovarian) greater than 100 µM, a TGI (EKVX NSCLC) greater than 100 µM and a TGI (SK-MEL-5 melanoma) greater than 100 µM. The TGI (TK-10 renal) was greater than 100 µM, the TGI (HCT-116 colon) was greater than 100 µM and the TGI (NCI-H460 lung) was greater than 100 µM. The TGI (ACHN renal) was greater than 100 µM, the TGI (MOLT-4 leukemia) was greater than 100 µM and the TGI (UO-31 renal) was greater than 100 µM. The TGI (DMS 114 small cell lung) was greater than 100 µM, the TGI (786-0 renal) was greater than 100 µM and the TGI (LXFL 529 NSCLC) was greater than 100 µM. It also gave a TGI (XF 498 CNS) greater than 100 µM, a TGI (COLO 205 colon) greater than 100 µM and a TGI (LOX IMVI melanoma) greater than 100 µM. The TGI (M19-MEL melanoma) was greater than 100 µM, the TGI (HOP-18 NSCLC) was greater than 100 µM and the TGI (K-562 leukemia) was greater than 100 µM.

With `CCOC(OC1=CCCC1)C(C)[Se]c1ccccc1` (configuration not stated) the TGI (NCI-H226 lung) was greater than 100 µM, the TGI (SF-539 CNS) was 71.7 µM and the TGI (RPMI-8226 leukemia) was 43.7 µM. For the same compound, the TGI (SF-295 CNS) was greater than 100 µM, the TGI (HOP-62 NSCLC) was greater than 100 µM and the TGI (SN12C renal) was greater than 100 µM. The TGI (M14 melanoma) was greater than 100 µM, the TGI (CCRF-CEM leukemia) was 46.6 µM and the TGI (NCI-H522 lung) was 35.9 µM. It also gave a TGI (A549 NSCLC) greater than 100 µM, a TGI (HOP-92 NSCLC) of 81.4 µM and a TGI (CAKI-1 renal) greater than 100 µM. It also gave a TGI (DMS 273 small cell lung) of 31.3 µM, a TGI (UACC-257 melanoma) greater than 100 µM and a TGI (HL-60(TB) leukemia) of 42.9 µM. The TGI (OVCAR-4 ovarian) was greater than 100 µM, the TGI (OVCAR-3 ovarian) was greater than 100 µM and the TGI (MALME-3M melanoma) was 88.4 µM. For the same compound, the TGI (KM12 colon) was greater than 100 µM, the TGI (HCT-15 colon) was 32 µM and the TGI (SNB-19 CNS) was greater than 100 µM. For the same compound, the TGI (SF-268 CNS) was 59 µM, the TGI (DLD-1 colon) was 48.4 µM and the TGI (SK-MEL-28 melanoma) was greater than 100 µM. The TGI (SNB-78 CNS) was greater than 100 µM, the TGI (UACC-62 melanoma) was greater than 100 µM and the TGI (OVCAR-8 ovarian) was greater than 100 µM. For the same compound, the TGI (U251 CNS) was 83 µM, the TGI (NCI-H23 lung) was 62.3 µM and the TGI (SR leukemia) was 41.2 µM. It also gave a TGI (KM20L2 colon) of 79.6 µM, a TGI (A498 renal) greater than 100 µM and a TGI (RXF 393 renal) of 72.8 µM. For the same compound, the TGI (HT29 colon) was 44.4 µM, the TGI (OVCAR-5 ovarian) was 60.6 µM and the TGI (IGROV1 ovarian) was greater than 100 µM. It also gave a TGI (RXF-631 renal) of 41.4 µM, a TGI (HCC-2998 colon) greater than 100 µM and a TGI (SK-OV-3 ovarian) greater than 100 µM. It also gave a TGI (EKVX NSCLC) greater than 100 µM, a TGI (SK-MEL-5 melanoma) of 52.4 µM and a TGI (TK-10 renal) greater than 100 µM. It also gave a TGI (HCT-116 colon) of 45.1 µM, a TGI (SK-MEL-2 melanoma) greater than 100 µM and a TGI (NCI-H460 lung) of 40.1 µM. The TGI (ACHN renal) was greater than 100 µM, the TGI (MOLT-4 leukemia) was 64.6 µM and the TGI (UO-31 renal) was greater than 100 µM. For the same compound, the TGI (DMS 114 small cell lung) was 20.4 µM, the TGI (SNB-75 CNS) was 90.4 µM and the TGI (786-0 renal) was 41.8 µM. It also gave a TGI (LXFL 529 NSCLC) greater than 100 µM, a TGI (XF 498 CNS) of 45.1 µM and a TGI (COLO 205 colon) of 39.9 µM. The TGI (LOX IMVI melanoma) was 28.9 µM, the TGI (M19-MEL melanoma) was 66.3 µM and the TGI (HOP-18 NSCLC) was greater than 100 µM. The TGI (K-562 leukemia) was greater than 100 µM.
